Consider 21 compounds from the supplement of paper PMC10702517.

This data set can be described thus: chemical recovery from spiked human plasma; higher = better extraction. As to conditions: pooled human plasma.
Setting [1] is: extraction method: SPE only (HLB 96-well).
Setting [2] is: extraction method: SPE only (HLB 96-well), PES comparison experiment.
[3] abbreviates: extraction method: solvent precipitation (ACN + hexane).
Where [4] appears, read: extraction method: PES+SPE (3 d PDMS equilibration then HLB SPE).

± gives the standard deviation.

As for `Nc1cccc2cc(S(=O)(=O)O)ccc12` [5-Aminonaphthalene-2-sulfonic acid], the chemical recovery was found to be 10.5 ± 3.9% under setting [1], 18.3 ± 2.4% under setting [2] and 65 ± 2.7% under setting [3].

For `Cc1c2ccccc2cc2c1cc(Br)c1ccccc12` [5-Bromo-7-methylbenzo[a]anthracene], the chemical recovery reads like this: under setting [1], 1.01 ± 0.069%; under setting [3], 58.3 ± 3.7%.

In the case of `c1ccc2c(c1)[nH]c1ccncc12` [5-Carboline], the chemical recovery worked out at 25.1 ± 5% under setting [4], 34.1 ± 2.7% under setting [1], 31.2 ± 3.7% under setting [2] and 72.4 ± 3.9% under setting [3].

With `Oc1ccc(Cl)c2cccnc12` [5-Chloro-8-hydroxyquinoline], the chemical recovery was found to be 2.63 ± 3.2% under setting [4] and 12.2 ± 4.9% under setting [1].

Turning to `Oc1ccc2[nH]ccc2c1` [5-Hydroxyindole], the chemical recovery under setting [3] worked out at 39.3 ± 5.3%.

`O=C(O)c1cc(C(=O)O)cc([N+](=O)[O-])c1` [5-Nitroisophthalic-acid]: the chemical recovery under setting [4] was 79.2 ± 17%, the chemical recovery under setting [1] came to 50.5 ± 17% and the chemical recovery under setting [3] was found to be 0.332 ± 0.35%.

For `CC(C)N1C(=O)c2cc(O)ccc2NS1(=O)=O` [6-Hydroxybentazone], the chemical recovery under setting [4] is 29 ± 4%, the chemical recovery under setting [1] amounted to 33.9 ± 7.6% and the chemical recovery under setting [3] came to 70.3 ± 3.6%.

With `Sc1ncnc2nc[nH]c12` [6-Mercaptopurine], the chemical recovery is, setting by setting: under setting [4], 0.00575 ± 0.005%; under setting [1], 0.069 ± 0.0096%; under setting [3], 0.144 ± 0.25%.

Turning to `C[C@]12CCC(=O)C=C1[C@H](O)C[C@@H]1[C@@H]2[C@@H](O)C[C@@]2(C)[C@H]1CC[C@]2(O)C(=O)CO` [6-beta-Hydroxycortisol], the chemical recovery under setting [2] is 45.1 ± 7.2%.

For the compound `O=S(=O)(O)CCC(F)(F)C(F)(F)C(F)(F)C(F)(F)C(F)(F)C(F)(F)F` [6.2 fluorotelomer sulfonic acid], the chemical recovery reads like this: under setting [1], 35.9 ± 1.7%; under setting [2], 43.1 ± 5%; under setting [3], 75.6 ± 2.9%.

Consider `O=P(O)(OCCC(F)(F)C(F)(F)C(F)(F)C(F)(F)C(F)(F)C(F)(F)F)OCCC(F)(F)C(F)(F)C(F)(F)C(F)(F)C(F)(F)C(F)(F)F` [6.2-Fluorotelomerphosphate-diester], for which the chemical recovery under setting [1] worked out at 7.04 ± 2.1%.

As to `CC(C)CC(C)NC1=CC(=O)C(Nc2ccccc2)=CC1=O` (centres undefined) [6PPD-quinone], the chemical recovery came to 16.3 ± 4.4% under setting [4], 51.9 ± 4.4% under setting [1] and 79.3 ± 4% under setting [3].

With `CCN(CC)c1ccc2c(C)cc(=O)oc2c1` [7-Diethylamino-4-methylcoumarin], the chemical recovery turned out to be 65.9 ± 13% under setting [4], 94 ± 5.9% under setting [1], 47.7 ± 7.5% under setting [2] and 78.3 ± 2.5% under setting [3].

For `C[C@H](CCC(=O)O)[C@H]1CC[C@H]2[C@@H]3C(=O)C[C@@H]4C[C@H](O)CC[C@]4(C)[C@H]3CC[C@]12C` [7-Oxolithocholic-acid], the chemical recovery by setting is: under setting [4], 51.1 ± 5.2%; under setting [1], 38.6 ± 2.2%; under setting [3], 65.4 ± 3.4%.

With `O=S(=O)(O)CCC(F)(F)C(F)(F)C(F)(F)C(F)(F)C(F)(F)C(F)(F)C(F)(F)C(F)(F)F` [8.2-Fluorotelomersulfonic-acid], the chemical recovery under setting [1] was determined as 34 ± 2.1%.

Turning to `Cc1ccc2c(c1)c1cccc3ccc4cccc2c4c31` [10-Methylbenzo[e]pyrene], the chemical recovery by setting is: under setting [1], 0.0979 ± 0.085%; under setting [3], 10.9 ± 1.3%.

For the compound `C[N+](C)(C)CC(O)CCl` (centres undefined) [(3-Chloro-2-hydroxypropyl)trimethylammonium], the chemical recovery by setting is: under setting [4], 0.458 ± 0.03%; under setting [1], 1.05 ± 0.96%; under setting [2], 9.57 ± 8%.

Consider `O=C(O)Cc1ccc(S(=O)(=O)O)cc1` [(4-Sulfophenyl)acetic acid], for which the chemical recovery under setting [2] came to 6.28 ± 4%.

Take `Oc1cc(O)c2c(c1)O[C@H](c1ccc(O)c(O)c1)[C@H](O)C2` [(-)-Epicatechin]: the chemical recovery amounted to 1.62 ± 1.1% under setting [4] and 10.4 ± 5.1% under setting [1].

As for `CC1NC(C)(C)COC1(O)c1cccc(Cl)c1` [(S,S)-Hydroxybupropion], the chemical recovery was found to be 5.72 ± 0.93% under setting [4], 36.3 ± 2.2% under setting [1] and 59.9 ± 3.2% under setting [3].

In the case of `Nc1nc(NC2CC2)c2ncn([C@H]3C=C[C@@H](CO)C3)c2n1` [Abacavir], the chemical recovery under setting [3] stood at 77 ± 3.4%.
